Measurements from patent US20240174679A1, “HETEROAROYL AMIDES AS LRRK2 INHIBITORS, PHARMACEUTICAL COMPOSITIONS, AND USES THEREOF” (MERCK SHARP & DOHME LLC, priority 2021, published 2024).

Molecular target: GST tagged truncated human mutant G2019S LRRK2 (Homo sapiens (Human), UniProt Q5S007, G2019S)
Assay: LRRK2 Km ATP LanthaScreen Assay
Assay type: biochemical
Details: 134 μM ATP (Km ATP), LRRKtide substrate, negative log of mean IC50 (molar)
In short: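 Truncated GST-tagged G2019S LRRK2 (1.25 nM enzyme solution) was preincubated with compound for 15 min at rt, then reacted for 90 min with fluorescein-LRRKtide and 134 μM ATP (Km) in Tris pH 8.5/MgCl2 buffer. After an EDTA stop, TR-FRET used a Tb anti-pERM antibody (520/495 nm ratio). IC50 came from a 4-parameter fit and is reported as pIC50, mean of several runs.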

GST tagged truncated human mutant G2019S LRRK2, sequence (Q5S007 970-2527 G2019S): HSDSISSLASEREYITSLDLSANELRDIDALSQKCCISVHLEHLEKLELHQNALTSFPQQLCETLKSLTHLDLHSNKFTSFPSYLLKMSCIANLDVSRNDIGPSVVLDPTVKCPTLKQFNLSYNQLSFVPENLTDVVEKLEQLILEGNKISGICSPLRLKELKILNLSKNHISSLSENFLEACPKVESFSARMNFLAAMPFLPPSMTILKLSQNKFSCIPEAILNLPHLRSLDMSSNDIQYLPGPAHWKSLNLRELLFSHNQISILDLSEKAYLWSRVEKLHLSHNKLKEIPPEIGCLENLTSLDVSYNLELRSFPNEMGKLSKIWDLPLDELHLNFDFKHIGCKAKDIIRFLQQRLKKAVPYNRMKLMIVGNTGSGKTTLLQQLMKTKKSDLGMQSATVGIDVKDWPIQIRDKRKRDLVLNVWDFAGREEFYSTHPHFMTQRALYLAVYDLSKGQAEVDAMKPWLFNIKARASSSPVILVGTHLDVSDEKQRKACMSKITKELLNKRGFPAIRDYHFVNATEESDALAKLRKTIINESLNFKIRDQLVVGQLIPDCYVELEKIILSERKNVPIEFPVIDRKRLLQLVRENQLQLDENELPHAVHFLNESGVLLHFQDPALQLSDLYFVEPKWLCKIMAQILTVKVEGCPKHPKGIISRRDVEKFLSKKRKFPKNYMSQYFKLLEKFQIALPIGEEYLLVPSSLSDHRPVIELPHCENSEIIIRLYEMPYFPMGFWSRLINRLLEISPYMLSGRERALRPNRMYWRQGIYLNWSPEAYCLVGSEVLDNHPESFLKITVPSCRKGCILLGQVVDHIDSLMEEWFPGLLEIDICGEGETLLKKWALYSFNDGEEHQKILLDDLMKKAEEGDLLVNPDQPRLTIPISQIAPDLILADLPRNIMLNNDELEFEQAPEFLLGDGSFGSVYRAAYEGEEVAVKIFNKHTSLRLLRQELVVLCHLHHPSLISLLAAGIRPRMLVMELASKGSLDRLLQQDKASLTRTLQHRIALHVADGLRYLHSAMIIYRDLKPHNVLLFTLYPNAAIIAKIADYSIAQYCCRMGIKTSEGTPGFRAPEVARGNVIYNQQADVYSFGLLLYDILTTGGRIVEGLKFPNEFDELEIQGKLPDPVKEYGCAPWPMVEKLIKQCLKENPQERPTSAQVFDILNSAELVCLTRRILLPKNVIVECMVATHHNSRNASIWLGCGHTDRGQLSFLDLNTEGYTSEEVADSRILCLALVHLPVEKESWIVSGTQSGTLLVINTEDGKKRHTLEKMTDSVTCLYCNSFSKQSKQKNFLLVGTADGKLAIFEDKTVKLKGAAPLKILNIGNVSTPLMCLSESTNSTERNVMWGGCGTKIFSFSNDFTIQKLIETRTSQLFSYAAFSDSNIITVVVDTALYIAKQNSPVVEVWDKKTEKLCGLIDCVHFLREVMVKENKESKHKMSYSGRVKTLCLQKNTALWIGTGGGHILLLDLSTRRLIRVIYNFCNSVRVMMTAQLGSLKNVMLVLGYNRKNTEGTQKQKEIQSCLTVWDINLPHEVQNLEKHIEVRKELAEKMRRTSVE

Row | Compound | LRRK2 pIC50
1 | Cn1cc(-c2nc(C(=O)Nc3cnn(CC4CCC4)c3)cs2)cn1 [Example 12-1, N-(1-(Cyclobutylmethyl)-1H-pyrazol-4-yl)-2-(1-methyl-1H-pyrazol-4-yl)thiazole-4-carboxamide] | 7.74
2 | Cn1cc(-c2nc(C(=O)Nc3cn(C4CCC4)nc3C3CC3)cs2)cn1 [Example 12-2, N-(1-cyclobutyl-3-cyclopropyl-1H-pyrazol-4-yl)-2-(1-methyl-1H-pyrazol-4-yl)-1,3-thiazole-4-carboxamide] | 7.76
3 | Cn1cc(-c2nc(C(=O)Nc3cn(C4CC4)nc3C3CC3)cs2)cn1 [Example 12-3, N-(1,3-dicyclopropyl-1H-pyrazol-4-yl)-2-(1-methyl-1H-pyrazol-4-yl)-1,3-thiazole-4-carboxamide] | 7.84
4 | CCn1cc(-c2nc(C(=O)Nc3cn(CC(F)(F)F)nc3OC)cs2)cn1 [Example 12-4, 2-(1-ethyl-1H-pyrazol-4-yl)-N-[3-methoxy-1-(2,2,2-trifluoroethyl)-1H-pyrazol-4-yl]-1,3-thiazole-4-carboxamide] | 6.57
5 | Cc1nn(C2CCC2)cc1NC(=O)c1csc(-c2cnn(C)c2)n1 [Example 12-5, N-(1-cyclobutyl-3-methyl-1H-pyrazol-4-yl)-2-(1-methyl-1H-pyrazol-4-yl)-1,3-thiazole-4-carboxamide] | 7.30
6 | COc1nn(CC(F)(F)F)cc1NC(=O)c1csc(-c2cnn(C)c2)n1 [Example 12-6, N-[3-methoxy-1-(2,2,2-trifluoroethyl)-1H-pyrazol-4-yl]-2-(1-methyl-1H-pyrazol-4-yl)-1,3-thiazole-4-carboxamide] | 7.06
7 | COc1nn(CC(F)(F)F)cc1NC(=O)c1csc(-c2cnn(S(C)(=O)=O)c2)n1 [Example 13-1, N-(3-Methoxy-1-(2,2,2-trifluoroethyl)-1H-pyrazol-4-yl)-2-(1-(methylsulfonyl)-1H-pyrazol-4-yl)thiazole-4-carboxamide] | 5.97
